Experimental data: paper PMC5983770, “Preferential Inhibition of Wnt/β-Catenin Signaling by Novel Benzimidazole Compounds in Triple-Negative Breast Cancer” (International Journal of Molecular Sciences, 2018)
Converted amounts (≈) assume the structure as drawn. Where two headings read alike, the source gives them in different places.

B1: Mesd: an LRP6 antagonist (protein, UniProt Q14696 34-234, looked up)
LRP chaperone MESD: AEGSPGTPDESTPPPRKKKKDIRDYNDADMARLLEQWEKDDDIEEGDLPEHKRPSAPVDFSKIDPSKPESILKMTKKGKTLMMFVTVSGSPTEKETEEITSLWQGSLFNANYDVQRFIVGSDRAIFMLRDGSYAWEIKDFLVGQDRCADVTLEGQVYPGKGGGSKEKNKTKQDKGKKKKEGDLKSRSSKEENRAGNKREDL

Tests used:
[1] = test system: SUM149, SUM159, MDA-MB-231 and MDA-MB-468 TNBC cell lines; test: In vitro cytotoxicity (Cell Titer Glo cell viability); conditions: for selective cytotoxicity against TNBC cell lines compared to MCF10A cells: TNBC cell lines versus MCF10A cells; for IC50: Homo sapiens, 72 h, read-out: IC50 values for TNBC cell lines (cell viability)
Procedure: (§3) MCF10A and TNBC cells (2 × 10^3) were seeded with appropriate growth media containing 10% FBS in each well of tissue culture-treated 96-well black plates (Corning #3904) (Corning, NY, USA) 16 h prior to treatment. […] Cell viability was then evaluated with Cell Titer Glo (Promega, Madison, WI, USA) and luminescence was measured using a TOPCount NXT plate reader (PerkinElmer, Waltham, MA, USA). Curves were fit according to nonlinear regression and IC50 values were calculated using GraphPad Prism 7. Cells were treated in quadruplicates and experiments were performed three times.

[2] = test system: pSTAT3 (Y705), STAT3; test: Western blot of STAT3 phosphorylation and STAT3β isoform; format: cell-based; conditions: for expression of the pSTAT3β and total STAT3β isoform (lower band): MDA-MB-468 and MCF10A cells; for expression of the pSTAT3β and total STAT3β isoform (lower band) / STAT3 phosphorylation: 18 h; for STAT3 phosphorylation: TNBC and MCF10A cells, 2.5 or 5 µM
Procedure: (§1) Cells were seeded in 6-well tissue-culture treated plates for 48 h until 80% confluency prior to treatment. Whole cell extracts were prepared with Laemmli buffer (5% SDS, 10% glycerol, 0.5 M Tris-Cl) supplemented with protease and phosphatase inhibitors and equivalent amounts of proteins were separated by SDS-PAGE. Proteins were transferred to polyvinylidene difluoride (PVDF) membrane (Bio-Rad, Hercules, CA, USA) and blocked with 5% BSA in tris-buffered saline (TBS) supplemented with 0.1% Tween-20 for 1 h. Membranes were incubated with primary antibody overnight on a shaker at 4 °C. They were then washed and incubated with secondary antibody for 1 h. Bands were visualized with the Enhanced Chemiluminescence Detection reagents (PerkinElmer).

[3] = test system: p4EBP1 (mTOR signaling); test: Western blot of 4EBP1 phosphorylation (mTOR signaling) in TNBC cell lines; format: cell-based, human; conditions: for phosphorylation of 4EBP1: both TNBC cell lines, 18 h
Procedure: as §1

[4] = test system: Wnt/β-catenin signaling; test: Effect on Wnt/β-catenin signaling (Western blot); format: cell-based; conditions: as summarised in the abstract
Procedure: as §1

[5] = test system: Wnt/β-catenin signaling; conditions: cited from earlier work
[6] = test system: phosphodiesterase; parameters: method as in PMID 22264761; conditions: screen of thirty 6-nitrobenzimidazoles; cited from earlier work
[7] = test system: Notch signaling (Hes1); test: Western blot of Notch signaling (Hes1); format: cell-based; conditions: as summarised in the abstract
Procedure: as §1

[8] = test system: MDA-MB-231 cells; test: Annexin V/PI apoptosis assay (flow cytometry); format: cell-based, human; conditions: 48 h; for percentage of MDA-MB-231 cells in the late apoptotic phase (% of total): 5 µM, vehicle control 8.1%; for scatterplot quadrant Q1 (Annexin V/PI) / scatterplot quadrant Q3 (Annexin V/PI) / scatterplot quadrant Q2 (Annexin V/PI) / scatterplot quadrant Q4 (Annexin V/PI) / apoptosis compared to DMSO: MDA-MB-231, 5 µM; for scatterplot quadrant Q1 (Annexin V/PI): DMSO 1.1; for scatterplot quadrant Q3 (Annexin V/PI): DMSO 3.4; for scatterplot quadrant Q2 (Annexin V/PI): DMSO 8.1; for scatterplot quadrant Q4 (Annexin V/PI): DMSO 87.5
Procedure: (§2) Cells were seeded in 6-well tissue-culture treated plates (Corning) for overnight incubation. Culture media was replaced with growth media containing 1% FBS. Cells were treated with compounds for 48 h prior to harvest. Apoptosis/necrosis was detected by the FITC Annexin V Apoptosis Detection Kit I from Becton Dickinson (San Jose, CA, USA). Cells positive for Annexin V, propidium iodide (PI) or both were all designated as apoptotic.

[9] = test system: noncancerous MCF10A cells; test: In vitro cytotoxicity (Cell Titer Glo cell viability); format: cell-based; conditions: Homo sapiens, MCF-10A; 0–5 µM, 72 h
Procedure: as §3

[10] = rat liver microsomes; introduction, no reference given; cited from earlier work
[11] = test system: phosphorylated LRP6; test: Western blot of phosphorylated LRP6 in MCF10A cells; format: cell-based; conditions: 2.5 or 5 µM, 18 h
Procedure: as §1

[12] = pH 7.4; introduction, no reference given; cited from earlier work
[13] = test system: MDA-MB-468 cells; test: Annexin V/PI apoptosis assay (flow cytometry); format: cell-based, human; conditions: MDA-MB-468, 5 µM, 48 h
Procedure: as §2

[14] = test system: cyclin D1 and survivin; test: Western blot of cyclin D1 and survivin in TNBC cells; format: cell-based, human; conditions: 2.5 and 5 µM, 18 h
Procedure: as §1

[15] = test system: phosphorylated LRP6; test: Western blot of phosphorylated LRP6 in TNBC cell lines; format: cell-based, human; conditions: both TNBC cell lines (MDA-MB-231, MDA-MB-468), 18 h
Procedure: as §1

[16] = test system: cyclin D1 and survivin; test: Western blot of cyclin D1 and survivin in MCF10A cells; format: cell-based; conditions: 2.5 µM, 18 h, compared with niclosamide
Procedure: as §1

[17] = test system: p4EBP1 (mTOR signaling); test: Western blot of 4EBP1 phosphorylation (mTOR signaling) in MCF10A cells; format: cell-based; conditions: 18 h
Procedure: as §1

[18] = test system: active β-catenin; test: Immunocytochemistry of active β-catenin; format: cell-based, human; conditions: MDA-MB-231 and MDA-MB-468 cells, 5 µM, 18 h
Procedure: Cells were seeded on coverslips for 48 h prior to treatment with DMSO and SR compounds for 18 h. Cells were washed with PBS, fixed with 4% paraformaldehyde for 20 min and permeabilized with 0.5% Triton X-100 for 20 min. Following blocking with 3% BSA for 30 min, cells were incubated overnight with active β-catenin antibody (MilliporeSigma) at 4 °C. Cells were incubated with Alexa 488 goat anti-mouse secondary antibody (1:1000) at room temperature for 1 h. To counterstain, cells were incubated with 1:5000 Hoechst 33342 for 20 min. […] Images were obtained at 20× magnification.

[19] = test system: active (non-phosphorylated) β-catenin; test: Western blot of active β-catenin after cytoplasmic-nuclear fractionation; format: cell-based, human; conditions: 5 µM, 18 h; for nuclear active β-catenin expression (Western blot): TNBC cells
Procedure: as §1
Cells were lysed using the CERI and CERII reagents of the cytoplasmic-nuclear extraction kit (ThermoFisher), to obtain cytoplasmic fractions following treatment. Nuclear fractions were isolated by using 1× Laemmli buffer and sonication for a few seconds. Membrane was incubated overnight with active β-catenin (MilliporeSigma, Burlington, MA, USA), lamin A/C and tubulin antibodies.

[20] = cited from earlier work
[21] = test system: SUM149, SUM159, MDA-MB-231 and MDA-MB-468 TNBC cell lines
Procedure: as §3

[22] = parameters: method as in PMID 20194742; conditions: cited from earlier work

Molecule | percentage of MDA-MB-231 cells in the late apoptotic phase (% of total) [8] | scatterplot quadrant Q1 (Annexin V/PI) [8] | scatterplot quadrant Q3 (Annexin V/PI) [8] | scatterplot quadrant Q2 (Annexin V/PI) [8] | scatterplot quadrant Q4 (Annexin V/PI) [8] | IC50 [9] | IC50 [1] | expression of the pSTAT3β and total STAT3β isoform (lower band) [2] | STAT3 phosphorylation [2] | phosphorylated LRP6 [11] | apoptosis compared to DMSO [8] | apoptosis compared to DMSO [13] | other results
O=[N+]([O-])c1ccc2nc(-c3cc(Cl)ccc3O)[nH]c2c1 [SRI32529] |  |  |  |  |  |  |  |  |  |  |  |  | selective cytotoxicity against TNBC cell lines compared to MCF10A cells [1]: not selectively cytotoxic; effect on STAT3 signaling ([2]; as summarised in the abstract): mitigated; effect on mTOR signaling ([3]; as summarised in the abstract): mitigated; effect on Wnt/β-catenin signaling [4]: inhibited Wnt/β-catenin signaling; potency in inhibiting Wnt/β-catenin signaling relative to SRI33576 [5]: less potency; outcome of screen for phosphodiesterase inhibitors [6]: not selected as one of the effective inhibitors; effect on Notch signaling [7]: mitigated
O=C(Nc1ccc([N+](=O)[O-])cc1Cl)c1cc(Cl)ccc1O [niclosamide, reference compound] | 29.5% | 6.09 | 10.5 | 29.5 | 53.9 | 1000 nM | 300 to 1000 nM | markedly decreased | downregulated STAT3 phosphorylation | decreased phosphorylated LRP6 |  |  | metabolic stability t1/2 [10]: 29 min; solubility [12]: 1.6 µM (≈ 0.523 µg/mL)
Oc1ccc(Cl)cc1-c1nc2cc(Cl)c(Cl)cc2[nH]1 [SRI35889, 4-Chloro-2-(5,6-dichloro-1H-benzo[d]imidazol-2-yl)phenol] | 26.5% | 15.1 | 11.0 | 26.5 | 47.4 | 5400 nM | 1100 to 2400 nM | not | noticeably less of an effect | not | induced significantly more apoptosis | induced significantly more apoptosis | expression of cyclin D1 and survivin [14]: decreased expression; phosphorylated LRP6 ([15]; 2.5 and 5 µM): decreased phosphorylated LRP6; phosphorylation of 4EBP1 ([3]; 2.5 and 5 µM): inhibited 4EBP1 phosphorylation; cyclin D1 or survivin expression [16]: did not affect cyclin D1 or survivin expression as much as niclosamide; phosphorylation of 4EBP1 ([17]; 2.5 µM, compared with TNBC cell lines): less of a change; nuclear active β-catenin expression (immunocytochemistry) [18]: a decrease in nuclear active β-catenin expression; effect on Notch signaling [7]: not affecting; cytoplasmic β-catenin (Western blot) ([19]; MDA-MB-468 cells): decreased cytoplasmic β-catenin; nuclear active β-catenin expression (Western blot) [19]: decreased nuclear active β-catenin expression
C=CCN1CC(=O)N2[C@@H](Cc3ccc(OP(=O)([O-])[O-])cc3)C(=O)N(Cc3cccc4cn(C)nc34)C[C@@H]2N1C(=O)NCc1ccccc1.[Na+].[Na+] [CWP232228] |  |  |  |  |  |  |  |  |  |  |  |  | blood concentration ([20]; IV, 200 mg/kg, for 7 h): 800 ng/mL; toxicity in animals [20]: minimal toxicity and no obvious clinical signs
Oc1ccc(F)cc1-c1nc2c(Cl)cc(Cl)cc2[nH]1 [SRI35357, 2-(5,7-Dichloro-3H-benzo[d]imidazol-2-yl)-4-fluorophenol] |  |  |  |  |  |  |  |  |  |  |  |  | selective cytotoxicity against TNBC cell lines compared to MCF10A cells [1]: not selectively cytotoxic
2-(5-Chloro-6-fluoro-1H-benzo[d]imidazol-2-yl)-4-fluorophenol [SRI35361] |  |  |  |  |  |  |  |  |  |  | did not induce significantly more apoptosis | did not induce significantly more apoptosis | selective cytotoxicity against TNBC cell lines compared to MCF10A cells [21]: not selectively cytotoxic
Oc1ccc(Cl)cc1-c1nc2ccc(C(F)(F)F)cc2[nH]1 [SRI33576] | 24% | 10.7 | 11.1 | 24.0 | 54.3 | 5000 nM | 1900 to 3200 nM | not | noticeably less of an effect | not | induced significantly more apoptosis | induced significantly more apoptosis | expression of cyclin D1 and survivin [14]: decreased expression; phosphorylated LRP6 ([15]; 5 µM): decreased phosphorylated LRP6; phosphorylation of 4EBP1 ([3]; 5 µM): inhibited phosphorylation of 4EBP1; phosphorylation of 4EBP1 ([17]; 5 µM): did not yield such a change; inhibition of Wnt/β-catenin signaling ([5]; colorectal cancer cells, decreasing cytosolic axin2 and β-catenin and overall c-myc, survivin and cyclin D1): inhibit Wnt/β-catenin signaling; nuclear active β-catenin expression (immunocytochemistry) [18]: a decrease in nuclear active β-catenin expression; nuclear active β-catenin expression (Western blot) [19]: decreased nuclear active β-catenin expression
B1 |  |  |  |  |  |  |  |  |  |  |  |  | time of highest blood concentration ([22]; mice dosed with 5, 10, 20 mg/kg): 2 h; bioavailability ([22]; mice): about 60%
